Legend:
[1] = Dissociation constant was evaluated; format: physicochemical
Dihydrofolate reductase [2] = target: T1, Dihydrofolate reductase (Homo sapiens, UniProt P00374); assay: Inhibitory concentration against dihydrofolate reductase enzyme (DHFR) enzyme isolated from CCRF-CEM human leukemia cells. value mentioned is from literature
T1 sequence (P00374 whole entry): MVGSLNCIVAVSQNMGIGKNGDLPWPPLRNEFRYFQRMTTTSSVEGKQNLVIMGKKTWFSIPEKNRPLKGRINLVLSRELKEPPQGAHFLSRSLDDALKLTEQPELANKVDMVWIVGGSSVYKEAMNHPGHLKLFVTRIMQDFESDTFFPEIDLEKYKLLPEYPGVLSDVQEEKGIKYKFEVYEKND

CCRF-CEM [3] = assay: cells; details: Homo sapiens, read-out: ED50
CCRF-CEM [4] = assay: Inhibitory activity against growth of CCRF-CEM human leukemia cells. value mentioned is from literature; format: functional; details: read-out: ED50
Dihydrofolate reductase [5] = target: T1, Dihydrofolate reductase; assay: Inhibitory concentration against dihydrofolate reductase enzyme (DHFR) enzyme isolated from CCRF-CEM human leukemia cells.; format: cell-free
[6] = target: T2, Folylpolyglutamate synthase, mitochondrial (Homo sapiens, UniProt Q05932); assay: Inhibitory concentration against human Folyl-polyglutamate synthase isolated from CCRF-CEM human leukemia cells.; format: cell-free
T2 sequence (Q05932 whole entry): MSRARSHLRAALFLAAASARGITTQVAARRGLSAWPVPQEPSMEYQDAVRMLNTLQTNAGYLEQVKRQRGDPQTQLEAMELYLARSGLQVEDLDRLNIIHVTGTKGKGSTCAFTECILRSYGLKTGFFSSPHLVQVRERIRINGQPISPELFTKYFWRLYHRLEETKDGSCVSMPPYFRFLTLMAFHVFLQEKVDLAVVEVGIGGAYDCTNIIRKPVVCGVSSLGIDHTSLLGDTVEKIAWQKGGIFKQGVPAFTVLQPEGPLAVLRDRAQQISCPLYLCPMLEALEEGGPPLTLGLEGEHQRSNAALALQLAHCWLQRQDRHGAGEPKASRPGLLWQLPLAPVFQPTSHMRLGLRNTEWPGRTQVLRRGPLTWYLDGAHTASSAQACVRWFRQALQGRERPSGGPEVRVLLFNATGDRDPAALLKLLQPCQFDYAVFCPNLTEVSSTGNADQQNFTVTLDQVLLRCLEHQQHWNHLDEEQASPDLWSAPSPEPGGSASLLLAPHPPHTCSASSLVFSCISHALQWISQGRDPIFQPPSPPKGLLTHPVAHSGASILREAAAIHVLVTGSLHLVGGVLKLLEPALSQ

[7] = target: T2, Folylpolyglutamate synthase, mitochondrial; assay: Inhibitory activity against mammalian Folyl-polyglutamate synthase

| Ki [7] | Compound | pKa [1] | IC50 (Dihydrofolate reductase [2]) | EC50 (CCRF-CEM [3]) | EC50 (CCRF-CEM [4]) | IC50 (Dihydrofolate reductase [5]) | IC50 [6] |
| --- | --- | --- | --- | --- | --- | --- | --- |
| – | CN(Cc1cnc2nc(N)nc(N)c2n1)c1ccc(C(=O)NC(CCCN)C(=O)O)cc1 (stereo unspecified) | 10.8 | 1 nM | 740 nM | 740 nM | 2.5 nM | 33000 nM |
| – | CN(Cc1cnc2nc(N)nc(N)c2n1)c1ccc(C(=O)NC(CC(F)(F)CN)C(=O)O)cc1 (stereo unspecified) | – | – | 93 nM | – | 1.3 nM | > 300000 nM |
| 200 nM | NCCCC(NC(=O)c1ccc(NCC2CNc3nc(N)[nH]c(=O)c3N2)cc1)C(=O)O (stereo unspecified) | – | – | – | – | – | – |
| – | NCC(F)(F)CC(N)C(=O)O (stereo unspecified) | 6.9 | – | – | – | – | – |

From ChEMBL document CHEMBL1129353, “Synthesis and biological evaluation of N alpha-(4-amino-4-deoxy-10-methylpteroyl)-DL-4,4-difluoroornithine” (J Med Chem, 1996)
